Earlier results in patent US20100047788A1, “METHOD AND KIT FOR DIAGNOSIS AND MONITORING OF THE TREATMENT OF CHRONIC TRIPANOSSOMIASIS AND CHAGAS DISEASE” (FUNDACÃO UNIVERSIDADE DE BRASÍLIA CDTCAMPUS UNIVER, priority 2006, published 2010).

System: LINE-1
Details: background statement; taken as indication of non occurrence of the kDNA integration

Question: For `Cc1cn([C@H]2C[C@H](N=[N+]=[N-])[C@@H](CO)O2)c(=O)[nH]c1=O` [AZT], which “effect on retrotransposition of LINE-1” value is on record?
Answer: prevented the retrotransposition of LINE-1
